# Key:
# AurA kinase = target: T1, AurA kinase (Homo sapiens, UniProt O14965); experiment: Kinase activity, mobility shift assay (MSA), AurA; type: biochemical; settings: read-out: inhibitory activity against AurA kinase
# T1 construct: purchased Carna Biosciences Inc. (Kobe) 05-101
# T1 sequence (O14965 1-403): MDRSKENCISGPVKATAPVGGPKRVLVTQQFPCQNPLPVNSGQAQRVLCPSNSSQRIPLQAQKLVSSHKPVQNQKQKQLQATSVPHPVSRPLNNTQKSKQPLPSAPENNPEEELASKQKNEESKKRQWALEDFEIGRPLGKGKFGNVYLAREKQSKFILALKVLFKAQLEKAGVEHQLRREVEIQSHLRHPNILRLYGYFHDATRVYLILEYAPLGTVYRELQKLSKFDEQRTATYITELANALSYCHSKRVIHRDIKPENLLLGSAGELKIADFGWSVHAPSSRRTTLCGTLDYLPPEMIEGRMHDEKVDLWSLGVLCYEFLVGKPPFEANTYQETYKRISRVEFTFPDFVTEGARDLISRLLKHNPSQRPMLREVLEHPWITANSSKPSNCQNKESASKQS
# Method: (§1) A test compound was dissolved in DMSO to obtain a 10 mM test compound solution, which was stored in a dark place at −20° C. until measurement. When bioactivity (kinase activity) is measured, a test compound solution is diluted with DMSO so that the concentration becomes 100 times higher than […], and then diluted 25 times (DMSO concentration is 4%) with an assay buffer described hereinafter.
# (§2) Products manufactured by Carna Biosciences Inc. (Kobe) used as protein kinases (recombinant human kinases) in the test are as follows: […]
# (§3) Kinase activity was measured by a mobility shift assay (MSA) method using QuickScout Screening Assist™ MSA (commercially available kit, manufactured by Carna Biosciences Inc.)
# (§4) 5 μl of a test compound solution (the concentration is 4 times of the final concentration) dissolved or suspended in an assay buffer [20 mM HEPES, 0.01% Triton™ X-100, 1 mM dithiothreitol, pH 7.5] or 5 μl of a solvent (4% DMSO-assay buffer) was charged in a 384 well plate made of polypropylene (product number 781280, manufactured by Greiner Bio-One Co., Ltd.). […] Inhibition (%) of the test compound was calculated in accordance with the following equation: […]
# JAK2 = JAK2 (Homo sapiens, UniProt O60674); experiment: Kinase activity, mobility shift assay (MSA), JAK2; type: biochemical; settings: read-out: inhibitory activity against JAK2 kinase
# JAK3 = target: T2, JAK3 (Homo sapiens, UniProt P52333); experiment: Kinase activity, mobility shift assay (MSA), JAK3; type: biochemical; settings: read-out: inhibitory activity against JAK3 kinase
# T2 construct: purchased Carna Biosciences Inc. (Kobe) 08-046
# T2 sequence (P52333 1-1124): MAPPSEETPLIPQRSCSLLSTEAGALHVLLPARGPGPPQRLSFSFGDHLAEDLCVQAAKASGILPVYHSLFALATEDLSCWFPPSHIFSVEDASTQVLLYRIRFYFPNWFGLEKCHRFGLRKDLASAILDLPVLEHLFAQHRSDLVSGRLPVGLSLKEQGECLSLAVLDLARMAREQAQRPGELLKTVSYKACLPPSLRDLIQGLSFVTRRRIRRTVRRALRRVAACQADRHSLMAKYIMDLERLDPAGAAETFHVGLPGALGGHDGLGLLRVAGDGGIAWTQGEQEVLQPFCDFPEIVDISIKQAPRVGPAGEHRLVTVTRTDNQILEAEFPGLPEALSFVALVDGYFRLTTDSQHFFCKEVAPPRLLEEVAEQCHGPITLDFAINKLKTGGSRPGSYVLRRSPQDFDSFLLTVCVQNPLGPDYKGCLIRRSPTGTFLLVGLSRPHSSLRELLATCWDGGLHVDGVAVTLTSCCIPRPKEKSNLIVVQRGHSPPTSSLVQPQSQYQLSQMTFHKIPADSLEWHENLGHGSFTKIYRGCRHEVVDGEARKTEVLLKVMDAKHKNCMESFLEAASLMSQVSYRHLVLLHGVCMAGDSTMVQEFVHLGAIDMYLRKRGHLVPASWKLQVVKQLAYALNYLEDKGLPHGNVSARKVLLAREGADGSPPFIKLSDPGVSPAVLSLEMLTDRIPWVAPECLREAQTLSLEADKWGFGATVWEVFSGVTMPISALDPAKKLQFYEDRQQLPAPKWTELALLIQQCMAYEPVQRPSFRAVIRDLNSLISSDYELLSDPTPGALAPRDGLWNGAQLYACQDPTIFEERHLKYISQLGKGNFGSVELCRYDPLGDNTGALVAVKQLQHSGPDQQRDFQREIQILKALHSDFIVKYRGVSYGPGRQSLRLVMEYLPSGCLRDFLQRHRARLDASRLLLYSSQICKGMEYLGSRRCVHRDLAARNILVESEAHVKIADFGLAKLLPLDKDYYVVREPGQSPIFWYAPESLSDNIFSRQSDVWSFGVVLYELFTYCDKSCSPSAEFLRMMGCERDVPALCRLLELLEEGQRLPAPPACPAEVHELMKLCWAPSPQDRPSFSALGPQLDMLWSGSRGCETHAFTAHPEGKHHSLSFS
# Method: as §1, §2, §3, §4
# Syk kinase = target: T3, Syk kinase (Homo sapiens, UniProt P43405); experiment: Kinase activity, mobility shift assay (MSA), Syk; type: biochemical; settings: read-out: inhibitory activity against Syk kinase
# T3 construct: purchased Carna Biosciences Inc. (Kobe) 08-176
# Method: as §1
# Products manufactured by Carna Biosciences Inc. (Kobe) used as protein kinases (recombinant human kinases) in the test are as follows:
# SYK (product number: 08-176), JAK3 (product number: 08-046), FLT3 (product number: 08-154), PDGFRα (PDGFRA) (product number: 08-157), TRKA (NTRK1) (product number: 08-186), KDR (product number: 08-191), CDK2/cycA (product number: 04-103), and AurA (AURKA) (product number: 05-101).
# as §3
# 5 μl of a test compound solution (the concentration is 4 times of the final concentration) dissolved or suspended in an assay buffer [20 mM HEPES, 0.01% Triton™ X-100, 1 mM dithiothreitol, pH 7.5] or 5 μl of a solvent (4% DMSO-assay buffer) was charged in a 384 well plate made of polypropylene (product number 781280, manufactured by Greiner Bio-One Co., Ltd.). Then, 5 μl of ATP/substrate/metal solution of QuickScout Screening Assist MSA was added. Furthermore, 10 μl of a kinase solution diluted with assay buffer was added and the reaction was initiated. However, only assay buffer (10 μl) was added to blank. The concentration of kinase and reaction conditions were controlled in accordance with the protocol of QuickScout Screening Assist MSA. Then, the reaction was terminated by adding 60 μl of termination buffer of QuickScout Screening Assist MSA and the amount of a substrate (S) and a phosphorylated substrate (P) in the reaction solution were determined in accordance with the protocol of QuickScout Screening Assist MSA using LabChip3000 (manufactured by Caliper Life Sciences Co., MA, USA), and also inhibition of the test compound at a concentration of 0.01, 0.1 and 1 μM was measured, respectively. The amounts of S and P were expressed by the height of each separated peak. Inhibition (%) of the test compound was calculated in accordance with the following equation:
# Inhibition (%)=(1−(C−A)/(B−A))×100
# where A denotes blank, B denotes a solvent and C denotes P/(P+S) of a well of the compound.
# [1] = system: Rat basophilic cells RBL-2H3; experiment: Action against IgE-induced degranulation (β-hexosaminidase release); type: cell-based; settings: RBL-2H3 cells, anti-DNP-IgE / DNP-BSA, read-out: inhibitory activity against IgE-induced degranulation
# Method: An inhibitory action against SYK was evaluated by an inhibitory action against degranulation of basophils induced by IgE. Rat basophilic cells RBL-2H3 were incubated with an anti-DNP-IgE antibody (1 μg/mL, Zymed) overnight. After washing cells twice with HBSS, an antigen DNP-BSA (1 μg/mL, LSL) was added, followed by incubation for 30 minutes. The supernatant was taken and an activity of β-hexosaminidase in the solution isolated by degranulation was measured using p-nitrophenyl-N-β-D-glucosaminide as a substrate. Using an absorbance meter (Spectra MAX Pro, Molecular Devices), each absorbance at 405 nm and 570 nm of the solution was measured and an increase in the amount was taken as an enzyme activity. 10 minutes before the addition of an antigen, a test material and a solvent (0.1% DMSO) were added to cells. Inhibition rate (%) against degranulation was calculated by the following equation.
# Inhibition rate (%)=(1−(A−C)/(B−C))×100
# where A denotes an increase in absorbance of a test material group, B denotes an increase in absorbance of a solvent group, and C denotes an increase in absorbance of a solvent group which is not stimulated by an antigen.
# Sequence of JAK2 (O60674 whole entry): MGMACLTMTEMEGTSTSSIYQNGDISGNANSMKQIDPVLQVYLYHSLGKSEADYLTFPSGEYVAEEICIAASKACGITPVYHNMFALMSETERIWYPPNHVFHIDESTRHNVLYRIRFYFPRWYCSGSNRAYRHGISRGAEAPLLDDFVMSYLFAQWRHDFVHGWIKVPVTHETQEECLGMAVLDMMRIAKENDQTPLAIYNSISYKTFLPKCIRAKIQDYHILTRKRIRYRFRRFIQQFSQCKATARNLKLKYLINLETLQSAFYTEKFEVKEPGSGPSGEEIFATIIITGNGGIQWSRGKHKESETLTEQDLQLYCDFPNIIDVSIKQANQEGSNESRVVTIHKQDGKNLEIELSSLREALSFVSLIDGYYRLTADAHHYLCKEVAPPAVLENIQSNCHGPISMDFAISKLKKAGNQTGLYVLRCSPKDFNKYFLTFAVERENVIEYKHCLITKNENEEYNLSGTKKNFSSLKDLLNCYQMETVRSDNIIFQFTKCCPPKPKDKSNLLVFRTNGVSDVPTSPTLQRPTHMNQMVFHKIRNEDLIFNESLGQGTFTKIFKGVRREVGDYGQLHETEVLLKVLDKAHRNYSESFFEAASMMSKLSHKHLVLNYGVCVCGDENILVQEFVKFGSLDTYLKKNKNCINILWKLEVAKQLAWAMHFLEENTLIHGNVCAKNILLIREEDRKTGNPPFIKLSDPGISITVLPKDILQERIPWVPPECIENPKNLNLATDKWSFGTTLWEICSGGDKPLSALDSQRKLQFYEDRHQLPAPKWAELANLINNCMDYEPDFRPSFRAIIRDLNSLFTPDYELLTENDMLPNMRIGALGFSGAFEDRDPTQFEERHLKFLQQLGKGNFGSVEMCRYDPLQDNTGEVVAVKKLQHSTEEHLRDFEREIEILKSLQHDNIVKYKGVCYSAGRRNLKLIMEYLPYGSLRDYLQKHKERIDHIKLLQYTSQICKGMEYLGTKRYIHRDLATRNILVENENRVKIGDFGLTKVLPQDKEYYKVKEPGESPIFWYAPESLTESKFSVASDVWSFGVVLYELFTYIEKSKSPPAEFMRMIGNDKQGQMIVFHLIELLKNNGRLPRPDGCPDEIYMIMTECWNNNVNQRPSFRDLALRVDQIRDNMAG
inhibition at 0.1 µM (AurA kinase) [%],inhibition at 0.1 µM (JAK2) [%],inhibition at 0.1 µM (JAK3) [%],inhibition at 0.1 µM (Syk kinase) [%],SMILES,inhibition at 0.05 µM [1] [%]
≥ 50,–,–,–,"Cc1cccc2cnc(Nc3ccc4cc[nH]c4c3)nc12 [Example 5, N-(1H-indol-6-yl)-8-methylquinazoline-2-amine]",–
–,≥ 50,≥ 50,–,COc1ccc(Nc2ncc3cccc(C)c3n2)cc1OC [Example 30],–
–,–,–,≥ 50,"Cc1cccc2cnc(Nc3cc(O)c4cn[nH]c4c3)nc12 [Example 82, 8-methyl-N-(4-hydroxy-1H-indazol-6-yl)quinazoline-2-amine]",≥ 50
–,–,–,≥ 50,"Cc1nc2c(N)cc(Nc3ncc4cccc(C)c4n3)cc2[nH]1 [Example 88, 8-methyl-N-(2-methyl-4-amino-1H-benzo[d]imidazol-6-yl)quinazoline-2-amine]",≥ 50

# Reference: patent US20100311965A1, “2-AMINOQUINAZOLINE DERIVATIVE” (CARNA BIOSCIENCES INC., priority 2007, published 2010)
